# Measurements taken from patent US20120225909A1, “INDAZOLE ANALOG” (priority 2009, published 2012).
# How the values were obtained:
# [1] = molecular target: T1, human β1-adrenergic receptor (Homo sapiens, UniProt P08588); test: Test Case 2-C: human β1-adrenergic receptor agonist activity (Cerep cellular functional GPCR, beta 1); format: cell-based; conditions: concentration 10 μM, isoproterenol = 100%
# T1 construct: expressed in transfected cells; host or cells: CHO (Chinese hamster ovary) cells, pcDNA3
# Text: (§1) Measurement of Human β1-Adrenergic Receptor Agonist Activity
# [2] = molecular target: T2, human α1A-adrenergic receptor (Homo sapiens, UniProt P35348); test: Test Case 4-B: human α1A-adrenergic receptor agonist activity (Cerep cellular functional GPCR, alpha 1A); format: cell-based; design: expressed in transfected cells; conditions: concentration 10 μM; for α1 receptor % of Control Agonist Response, Control; Epinephrine: epinephrine = 100%; for α1 receptor % of Control Agonist Response, Control; Norepinephrine: norepinephrine = 100%
# T2 sequence (P35348 1-466): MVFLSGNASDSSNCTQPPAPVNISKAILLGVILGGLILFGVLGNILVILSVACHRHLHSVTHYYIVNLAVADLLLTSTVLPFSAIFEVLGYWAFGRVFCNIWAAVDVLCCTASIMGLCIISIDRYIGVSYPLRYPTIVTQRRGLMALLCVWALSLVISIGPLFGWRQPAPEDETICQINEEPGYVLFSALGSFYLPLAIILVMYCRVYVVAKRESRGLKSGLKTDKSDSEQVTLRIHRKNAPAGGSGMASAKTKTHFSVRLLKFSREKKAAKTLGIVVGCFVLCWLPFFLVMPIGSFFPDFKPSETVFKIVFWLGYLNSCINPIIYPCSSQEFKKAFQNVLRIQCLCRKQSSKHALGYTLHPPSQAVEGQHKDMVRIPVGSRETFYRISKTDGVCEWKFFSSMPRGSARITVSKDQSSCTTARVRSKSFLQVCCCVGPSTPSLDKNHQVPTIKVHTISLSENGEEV
# Text: Measurement of Human α1A-Adrenergic Receptor Agonist Activity
# The human α1A-adrenergic receptor agonist activity] can be measured by […] Functional GPCR·Gs, alpha 1A (Ref. 722-36a) listed on p. 52 of the Cerep 2008 CATALOG IN VITRO PHARMACOLOGY & ADME-TOX.
# [3] = test system: pentobarbital-anesthetized rats; test: Test Case 9: effects on the blood pressure and heart rate in pentobarbital-anesthetized rats; format: in vivo, rat
# Protocol: Effects on the blood pressure and heart rate in pentobarbital-anesthetized rats
# The blood pressure and heart rate of rats under pentobarbital anesthesia are measured, and the effects of rapid intravenous administration of the test compound on the blood pressure and heart rate can be studied. After anesthetizing male SD rats (Japan SLC) by intraperitoneal administration of 50 mg/kg of pentobarbital sodium (Tokyo Chemical Industry Co., Ltd.), 25 mg/kg of pentobarbital sodium is administered subcutaneously as maintenance anesthesia. The left femoral vein is exposed and stripped, and a SP10 polyethylene tube filled with saline (connected to a three-way stopcock via a ¼ venous needle) is inserted and left in place in the vein.
# The inside of the left thigh is cut, and the femoral artery is exposed and stripped. A polyethylene tube filled with heparinized physiological saline solution (SP31, connected to a three-way stopcock via a Terumo injection needle 22G) is inserted and connected to a pressure transducer. The blood pressure is measured from the pressure transducer via a strain pressure amplifier (AP-641G, Nihon Kohden). The heart rate is measured with the pulse wave of the blood pressure as a trigger via a heart rate counter (AT-601G, Nihon Kohden). The blood pressure, mean blood pressure, and heart rate are output to a recorder and recorded. Furthermore, the mean blood pressure is recorded via the strain pressure amplifier (AP-641G) using the formula {[…]}.
# Specifically, 3 mg/mL of test compound is administered rapidly at a volume of 1 mL/kg. The relative value (%) of the values at each point in time versus the mean blood pressure and heart rate before beginning administration are determined for each individual, and the mean±standard deviation of the relative value (%) at the time of the maximum change in each parameter is determined.
# Male C57BL/6 Cr mice = test: Test Case 10: mouse piloerection test; format: in vivo
# [4] = molecular target: T3, human β2-adrenergic receptor (Homo sapiens, UniProt P07550); test: Test Case 3-B: human β2-adrenergic receptor agonist activity; format: cell-based; conditions: for Emax: read-out: β2 receptor I.A.
# T3 construct: expressed in transfected cells; host or cells: CHO (Chinese hamster ovary) cells, pcDNA3
# Protocol: (§2) Measurement of Human β2-Adrenergic Receptor Agonist Activity
# The human β2-adrenergic receptor agonist activity is measured by the same method as in Test Case 1-B using CHO (Chinese hamster ovary) cells transfected by a human β2 gene inserted in pcDNA3 (Invitrogen).
# [5] = molecular target: T3, human β2-adrenergic receptor; test: Test Case 3-C: human β2-adrenergic receptor agonist activity (Cerep cellular functional GPCR, beta 2); format: cell-based; conditions: concentration 10 μM, isoproterenol = 100%
# Text: as §2
# [6] = molecular target: T4, human β3-adrenergic receptor (Homo sapiens, UniProt P13945); test: Test Case 1-B: human β3-adrenergic receptor agonist activity (cAMP-Screen, 96-well); format: cell-based; conditions: for Emax: 0.5 h, read-out: β3 receptor I.A.; for EC50 / β3 receptor I.A.: Test Case 1-B; for EC50: CHO cells, cAMP; for β3 receptor I.A.: maximum response of isoproterenol = 100%
# T4 construct: A full-length human β3 gene is obtained from a human genomic library (made by Clontech) using this as the probe; expressed in transfected cells; host or cells: CHO (Chinese hamster ovary) cells, pcDNA3
# Procedure, shortened: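 CHO cells stably transfected with full-length human β3 gene, serum-starved 15 min, then exposed to serially diluted compound in Ham's F-12 with 100 mmol/L HEPES and 1 mmol/L IBMX (diluent concentrations) for 30 min. Cells lysed 30 min at 37 °C; cAMP quantified by cAMP-Screen immunoassay.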
# [7] = test system: common marmoset isolated bladder smooth muscle; test: Test Case 7: common marmoset isolated bladder smooth muscle relaxation test; conditions: KCl 40 mmol/L contracted marmoset bladder, papaverine 10^−4 mol/L relaxation = 100%
# Protocol: Common Marmoset Isolated Bladder Smooth Muscle Relaxation Test
# After sacrificing common marmosets (Japan CLEA) by exsanguination, they are laparotomized and the urinary bladder is removed. […] The specimens are loaded with one gram of resting tension and stabilized for 30 or more minutes. After the resting tension of the specimen has stabilized, a final concentration of 40 mmol/L of KCl is added repeatedly, and it is confirmed that the contraction in response to KCl has basically become constant. […] Taking that relaxation response as 100%, the relaxation rate (%) at test compound concentrations of […] is calculated.
# [8] = molecular target: T4, human β3-adrenergic receptor; test: Test Case 1-A: human β3-adrenergic receptor agonist activity (cAMP-EIA, 24-well); format: cell-based; conditions: maximum response of isoproterenol = 100%
# Protocol: Measurement of Human β3-Adrenergic Receptor Agonist Activity
# The human β3-adrenergic receptor agonist activity is measured using CHO (Chinese hamster ovary) cells transfected by a human β3 gene inserted in pcDNA3 (Invitrogen). […] A full-length human β3 gene is obtained from a human genomic library (made by Clontech) using this as the probe. These cells are cultured in Ham's F-12 medium containing 10% fetal calf serum and 400 μg/mL genectin (Invitrogen). These cells are sown in 24-well plates to make 1×10^5 cells/well. After culturing for approximately 20 hours, they are allowed to stand for two hours in serum-free Ham's F-12 medium. […] After culturing for 30 minutes, the medium is removed, and 0.1 mL of 1 N NaOH is added and allowed to stand for 20 minutes. A quantity of 0.1 mL of 1 N acetic acid is added. After stirring, centrifugation is performed, and cAMP is assayed using a cAMP-EIA kit (made by Cayman).
# [9] = molecular target: T2, human α1A-adrenergic receptor; test: Test Case 4-A: human α1A-adrenergic receptor agonist activity (HEK293, Ca flux, Fura-2); format: cell-based; design: expressed in transfected cells; host or cells: HEK293 cells, pcDNA3.1; conditions: Test Case 4-A; maximum response of norepinephrine = 100%; Table 4
# Procedure, shortened: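 Fura-2AM-loaded HEK293 cells transfected with human α1A were preincubated for 180 s. Compound (sample plate 10^−5 to 10^−12 M) was added after ~30 s of 340/380 nm excitation ratio reading (500 nm emission, 2-s intervals), followed by 270 s more reading. Ca flux is the peak height: maximum ratio after addition minus the pre-addition ratio.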
# [10] = molecular target: T1, human β1-adrenergic receptor; test: Test Case 2-B: human β1-adrenergic receptor agonist activity; format: cell-based; conditions: Test Case 2-B; maximum response of isoproterenol = 100%
# Protocol: as §1
# The human β1-adrenergic receptor agonist activity is measured by the same method as in Test Case 1-B using CHO (Chinese hamster ovary) cells transfected by a human β1 gene inserted in pcDNA3 (Invitrogen).
# [11] = anesthetized male SD rats, 3 mg/kg intravenous over 30 seconds, maximum change, mean±standard deviation
# [12] = 10 mg/kg i.v., n=4, observation time 5 min, Score 0
# [13] = 10 mg/kg i.v., n=4, observation time 15 min, Score 0
# [14] = 10 mg/kg i.v., n=4, observation time 30 min, Score 0
# [15] = 10 mg/kg i.v., n=4, observation time 60 min, Score 0
# T1 sequence (P08588 whole entry): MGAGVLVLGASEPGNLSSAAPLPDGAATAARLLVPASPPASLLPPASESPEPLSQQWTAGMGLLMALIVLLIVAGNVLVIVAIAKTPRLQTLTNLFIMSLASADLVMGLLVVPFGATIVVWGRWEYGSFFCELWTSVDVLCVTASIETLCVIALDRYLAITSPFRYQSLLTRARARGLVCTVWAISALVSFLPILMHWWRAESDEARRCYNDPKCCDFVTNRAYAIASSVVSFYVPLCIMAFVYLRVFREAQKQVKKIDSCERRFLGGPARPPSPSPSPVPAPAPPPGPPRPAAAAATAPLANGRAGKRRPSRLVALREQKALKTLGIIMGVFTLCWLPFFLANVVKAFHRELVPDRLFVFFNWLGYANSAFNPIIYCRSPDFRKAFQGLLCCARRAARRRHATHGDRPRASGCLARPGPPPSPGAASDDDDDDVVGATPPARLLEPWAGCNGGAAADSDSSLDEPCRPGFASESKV
# T4 sequence (P13945 whole entry): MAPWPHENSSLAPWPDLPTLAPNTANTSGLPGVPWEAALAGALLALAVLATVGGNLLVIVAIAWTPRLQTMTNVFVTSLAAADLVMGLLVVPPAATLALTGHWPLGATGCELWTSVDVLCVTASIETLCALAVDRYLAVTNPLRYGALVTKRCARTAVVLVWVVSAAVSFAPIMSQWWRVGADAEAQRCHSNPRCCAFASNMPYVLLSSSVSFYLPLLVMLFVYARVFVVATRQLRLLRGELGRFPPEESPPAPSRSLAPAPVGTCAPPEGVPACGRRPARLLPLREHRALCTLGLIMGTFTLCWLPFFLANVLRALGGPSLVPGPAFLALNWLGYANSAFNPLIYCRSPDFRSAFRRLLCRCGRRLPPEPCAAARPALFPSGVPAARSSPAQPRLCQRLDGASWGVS
# T3 sequence (P07550 whole entry): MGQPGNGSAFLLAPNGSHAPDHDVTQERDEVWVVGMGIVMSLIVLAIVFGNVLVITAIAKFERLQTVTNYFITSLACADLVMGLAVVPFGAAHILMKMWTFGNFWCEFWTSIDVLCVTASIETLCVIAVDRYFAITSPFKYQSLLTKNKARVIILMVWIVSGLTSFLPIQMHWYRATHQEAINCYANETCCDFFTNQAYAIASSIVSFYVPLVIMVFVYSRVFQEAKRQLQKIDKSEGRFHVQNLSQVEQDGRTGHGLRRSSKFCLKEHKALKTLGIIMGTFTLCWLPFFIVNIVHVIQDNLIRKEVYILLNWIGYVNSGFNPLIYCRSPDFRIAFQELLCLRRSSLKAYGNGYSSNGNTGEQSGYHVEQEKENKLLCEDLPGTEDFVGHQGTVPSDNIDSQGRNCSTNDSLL
SMILES,β1 receptor % of Control Agonist Response [1] [%],"α1 receptor % of Control Agonist Response, Control; Epinephrine [2] [%]","α1 receptor % of Control Agonist Response, Control; Norepinephrine [2] [%]","increase in MBP (%) [3, 11] [%]",number of experimental animals matching Score 0 (no piloerection) (Male C57BL/6 Cr mice; [12]),number of experimental animals matching Score 0 (no piloerection) (Male C57BL/6 Cr mice; [13]),number of experimental animals matching Score 0 (no piloerection) (Male C57BL/6 Cr mice; [14]),number of experimental animals matching Score 0 (no piloerection) (Male C57BL/6 Cr mice; [15]),Emax [4] [%],β2 receptor % of Control Agonist Response [5] [%],Emax [6] [%],EC50 [6] [nM],β3 receptor I.A. [6] [%],other results
CCc1n[nH]c2cc(OCCNC[C@H](O)c3cccc(NS(=O)(=O)c4cn[nH]c4)c3)ccc12 [ex149],5.2,8.5,7.3,2.1 ± 1.9,4,4,4,4,0,0.2,100,12,,
"CCc1n[nH]c2cc(OCCNC[C@H](O)c3cccc(NS(=O)(=O)c4cnn(C)c4)c3)ccc12 [ex135, (R)-N-(3-(2-(2-(3-ethylindazol-6-yloxy)ethylamino)-1-hydroxyethyl)phenyl)-1-methylpyrazole-4-sulfonamide]",3.7,0,0,5.6 ± 1.2,4,4,4,4,7,1.3,105,29,,
"O=S(=O)(Nc1cccc([C@@H](O)CNCCOc2ccc3c(OC(F)F)n[nH]c3c2)c1)c1cn[nH]c1 [ex113, (R)-N-(3-(2-(2-(3-(difluoromethoxy)-indazol-6-yloxy)ethylamino)-1-hydroxyethyl)phenyl)pyrazole-4-sulfonamide]",3.7,6.9,6.0,3.3 ± 1.7,4,4,4,4,3,0.2,108,22,,
"CC(C)NCC(O)c1ccc(O)c(O)c1 (centres unmarked) [isoproterenol, reference compound]",,,,,,,,,,,,,100,relaxant activity (%) 10^−4M ([7]; 10^−4 M): 54.4%; relaxant activity (%) 10^−5M ([7]; 10^−5 M): 50.6%; β3 receptor I.A. [8]: 100%
"COc1n[nH]c2cc(OCCNC[C@H](O)c3cccc(NS(=O)(=O)c4cccnc4)c3)ccc12 [ex44, (R)-N-(3-(1-hydroxy-2-(2-(3-methoxyindazol-6-yloxy)-ethylamino)ethyl)phenyl)py-ridine-3-sulfonamide]",,,,,,,,,,,,13,58,"α1A receptor I.A. [9]: 0%; increase in MBP (%) ([3]; rat, in vivo, iv, 3 mg/kg): 5.7 ± 3.0%; number of experimental animals matching Score 0 (no piloerection) (Male C57BL/6 Cr mice; in vivo, iv, 10 mg/kg): 4; β2 receptor I.A. ([4]; Test Case 3-B, maximum response of isoproterenol = 100%): 5%; β1 receptor I.A. [10]: 9%"
